Assay results as given in patent US10968227B2, “Isoquinoline ether compounds as mGluR4 allosteric potentiators, compositions, and methods of treating neurological dysfunction” (Vanderbilt University, priority 2016, dated 2021).
Converted amounts (≈) assume the structure as drawn.

Legend:
[1] = Human plasma fraction unbound; format: in vitro ADME; settings: read-out: Human Fu Plasma
[2] = Rat plasma fraction unbound; format: in vitro ADME; settings: read-out: Rat Fu Plasma
[3] = Rat brain fraction unbound; format: in vitro ADME; settings: read-out: Rat Fu Brain
Brain-plasma partition = format: in vivo; settings: rat; for unbound brain-to-plasma partition coefficient (Kp,uu): unbound brain-plasma ratio, read-out: Brain-Plasma Kp,ω
Kinetic solubility = format: physicochemical; settings: kinetic from dmso stock
[4] = Rat intrinsic and hepatic clearance; format: in vitro ADME
[5] = Human intrinsic and hepatic clearance; format: in vitro ADME
1A2 = 1A2 (Homo sapiens (Human), UniProt P05177); experiment: CYP 1A2 inhibition; format: in vitro ADME
Chain of 1A2 (P05177 whole entry): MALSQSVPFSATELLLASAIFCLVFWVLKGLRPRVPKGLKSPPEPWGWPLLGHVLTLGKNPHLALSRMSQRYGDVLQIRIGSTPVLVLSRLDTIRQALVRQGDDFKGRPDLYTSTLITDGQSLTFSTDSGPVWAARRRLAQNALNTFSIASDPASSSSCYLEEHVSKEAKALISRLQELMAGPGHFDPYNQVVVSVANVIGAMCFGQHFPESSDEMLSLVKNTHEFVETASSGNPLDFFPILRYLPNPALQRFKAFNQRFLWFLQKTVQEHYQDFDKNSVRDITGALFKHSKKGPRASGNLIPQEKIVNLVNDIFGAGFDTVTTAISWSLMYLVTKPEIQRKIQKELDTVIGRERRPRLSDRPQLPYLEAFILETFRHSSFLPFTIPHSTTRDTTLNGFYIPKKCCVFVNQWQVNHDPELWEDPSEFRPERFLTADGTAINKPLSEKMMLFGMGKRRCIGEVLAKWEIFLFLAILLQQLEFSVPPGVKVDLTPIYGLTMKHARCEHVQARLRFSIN

2D6 = 2D6 (Homo sapiens (Human), UniProt P10635); experiment: CYP 2D6 inhibition; format: in vitro ADME
Chain of 2D6 (P10635 whole entry): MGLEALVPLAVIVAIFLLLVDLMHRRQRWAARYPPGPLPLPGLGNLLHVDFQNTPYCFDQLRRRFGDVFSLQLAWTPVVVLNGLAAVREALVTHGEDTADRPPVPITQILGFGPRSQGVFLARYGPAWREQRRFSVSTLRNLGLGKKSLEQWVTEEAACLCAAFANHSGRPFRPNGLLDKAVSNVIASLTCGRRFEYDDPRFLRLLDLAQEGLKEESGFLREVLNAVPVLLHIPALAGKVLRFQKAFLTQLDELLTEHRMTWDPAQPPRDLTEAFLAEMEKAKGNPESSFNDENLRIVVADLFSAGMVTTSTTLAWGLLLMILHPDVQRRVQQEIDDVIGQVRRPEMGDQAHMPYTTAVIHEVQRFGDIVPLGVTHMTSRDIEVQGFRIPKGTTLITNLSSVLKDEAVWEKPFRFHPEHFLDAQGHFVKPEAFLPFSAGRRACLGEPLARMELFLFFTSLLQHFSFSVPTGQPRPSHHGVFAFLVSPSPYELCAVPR

3A4 = 3A4 (Homo sapiens (Human), UniProt P08684); experiment: CYP 3A4 inhibition; format: in vitro ADME
Chain of 3A4 (P08684 whole entry): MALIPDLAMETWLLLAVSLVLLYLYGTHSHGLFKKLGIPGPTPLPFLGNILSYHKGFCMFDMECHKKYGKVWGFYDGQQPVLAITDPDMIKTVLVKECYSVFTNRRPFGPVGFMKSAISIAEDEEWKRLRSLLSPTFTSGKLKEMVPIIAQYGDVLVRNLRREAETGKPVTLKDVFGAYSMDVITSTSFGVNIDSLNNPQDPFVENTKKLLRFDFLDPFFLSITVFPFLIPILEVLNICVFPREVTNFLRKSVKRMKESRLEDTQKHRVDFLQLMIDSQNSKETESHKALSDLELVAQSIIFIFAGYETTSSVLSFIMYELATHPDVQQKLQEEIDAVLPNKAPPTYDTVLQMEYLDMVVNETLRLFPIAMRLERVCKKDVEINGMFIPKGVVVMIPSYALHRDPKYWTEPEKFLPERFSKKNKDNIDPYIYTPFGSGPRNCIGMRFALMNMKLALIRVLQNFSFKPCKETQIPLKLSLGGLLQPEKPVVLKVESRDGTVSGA

2C9 = 2C9 (Homo sapiens (Human), UniProt P11712); experiment: CYP 2C9 inhibition; format: in vitro ADME
Chain of 2C9 (P11712 whole entry): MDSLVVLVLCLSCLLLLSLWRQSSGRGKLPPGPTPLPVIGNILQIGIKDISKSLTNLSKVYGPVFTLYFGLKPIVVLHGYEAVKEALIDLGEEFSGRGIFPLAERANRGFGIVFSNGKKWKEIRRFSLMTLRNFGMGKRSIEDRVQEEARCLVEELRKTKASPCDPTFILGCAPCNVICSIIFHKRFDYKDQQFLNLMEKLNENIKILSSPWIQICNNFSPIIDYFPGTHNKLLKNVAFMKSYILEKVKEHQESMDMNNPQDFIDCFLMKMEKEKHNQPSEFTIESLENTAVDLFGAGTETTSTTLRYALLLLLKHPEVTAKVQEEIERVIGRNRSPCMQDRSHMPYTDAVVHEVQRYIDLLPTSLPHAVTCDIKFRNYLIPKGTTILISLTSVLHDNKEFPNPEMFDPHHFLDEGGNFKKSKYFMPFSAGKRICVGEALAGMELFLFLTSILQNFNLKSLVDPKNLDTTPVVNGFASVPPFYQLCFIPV

Compound: c1cnc2[nH]nc(Nc3ccc4c(O[C@@H]5CCOC5)nccc4c3)c2c1 [Compound 65]
- fraction unbound [1]: 0.028
- fraction unbound [2]: 0.043
- fraction unbound [3]: 0.003
- Kp (Brain-plasma partition): 1.28
- unbound brain-to-plasma partition coefficient (Kp,uu) (Brain-plasma partition): 0.09

Compound: c1cnc2[nH]nc(Nc3ccc4c(OCC5CCOCC5)nccc4c3)c2c1 [Compound 77]
- fraction unbound [1]: 0.013
- fraction unbound [2]: 0.008
- fraction unbound [3]: 0.002
- Kp (Brain-plasma partition): 1.59
- unbound brain-to-plasma partition coefficient (Kp,uu) (Brain-plasma partition): 0.4

Compound: c1cc2cc(Nc3n[nH]c4nccnc34)ccc2c(O[C@H]2CCOC2)n1 [Compound 59]
- solubility kinetic (Kinetic solubility): 2.6 ± 1.6 µM (≈ 0.906 µg/mL)

Compound: C[C@H]1OCC[C@H]1Oc1nccc2cc(Nc3n[nH]c4cccnc34)ccc12 [Compound 91]
- CLint scaled [4]: 377 mL/min/kg
- Rat CLhep [4]: 59.0 mL/min/kg
- CLint scaled [5]: 109 mL/min/kg
- Human CLhep [5]: 17.6 mL/min/kg
- solubility kinetic (Kinetic solubility): 3.3 ± 0.2 µM (≈ 1.19 µg/mL)

Compound: CCOCCOc1nccc2cc(Nc3n[nH]c4ncccc34)ccc12 [Compound 75]
- fraction unbound [1]: 0.021
- CLint scaled [4]: 456 mL/min/kg
- Rat CLhep [4]: 60.7 mL/min/kg
- fraction unbound [2]: 0.031
- CLint scaled [5]: 71.8 mL/min/kg
- Human CLhep [5]: 16.2 mL/min/kg
- fraction unbound [3]: 0.004
- Kp (Brain-plasma partition): 1
- unbound brain-to-plasma partition coefficient (Kp,uu) (Brain-plasma partition): 0.13

Compound: C[C@H]1OCC[C@H]1Oc1nccc2cc(Nc3n[nH]c4ncccc34)ccc12 [Compound 92]
- CLint scaled [4]: 518 mL/min/kg
- Rat CLhep [4]: 61.7 mL/min/kg
- CLint scaled [5]: 129 mL/min/kg
- Human CLhep [5]: 18.1 mL/min/kg
- solubility kinetic (Kinetic solubility): 0.9 ± 0.2 µM (≈ 0.325 µg/mL)

Compound: COCCOc1nccc2cc(Nc3n[nH]c4cc(F)cnc34)ccc12 [Compound 97]
- CLint scaled [4]: 161 mL/min/kg
- Rat CLhep [4]: 48.8 mL/min/kg
- CLint scaled [5]: 96.8 mL/min/kg
- Human CLhep [5]: 17.3 mL/min/kg
- solubility kinetic (Kinetic solubility): 1 ± 0.1 µM (≈ 0.353 µg/mL)

Compound: c1cnc2c(Nc3ccc4c(OCCN5CCOCC5)nccc4c3)n[nH]c2c1 [Compound 93]
- CLint scaled [4]: 718 mL/min/kg
- Rat CLhep [4]: 63.8 mL/min/kg
- CLint scaled [5]: 136 mL/min/kg
- Human CLhep [5]: 18.2 mL/min/kg
- solubility kinetic (Kinetic solubility): 20.5 ± 2.1 µM (≈ 8 µg/mL)

Compound: Fc1cnc2c(Nc3ccc4c(O[C@H]5CCOC5)nccc4c3)n[nH]c2c1 [Compound 95]
- CLint scaled [4]: 127 mL/min/kg
- Rat CLhep [4]: 45.1 mL/min/kg
- CLint scaled [5]: 40.3 mL/min/kg
- Human CLhep [5]: 13.6 mL/min/kg
- solubility kinetic (Kinetic solubility): 0.4 µM (≈ 0.146 µg/mL)

Compound: CCOCCOc1nccc2cc(Nc3n[nH]c4cccnc34)ccc12 [Compound 69]
- fraction unbound [1]: 0.017
- fraction unbound [2]: 0.023
- fraction unbound [3]: 0.005
- Kp (Brain-plasma partition): 1.23
- unbound brain-to-plasma partition coefficient (Kp,uu) (Brain-plasma partition): 0.27
- solubility kinetic (Kinetic solubility): 9.9 ± 2.7 µM (≈ 3.46 µg/mL)

Compound: c1cnc2[nH]nc(Nc3ccc4c(O[C@H]5CCOC5)nccc4c3)c2c1 [Compound 66]
- IC50 (1A2): > 30 µM
- IC50 (2D6): > 30 µM
- fraction unbound [1]: 0.019
- IC50 (3A4): > 30 µM
- CLint scaled [4]: 210 mL/min/kg
- Rat CLhep [4]: 52.5 mL/min/kg
- fraction unbound [2]: 0.047
- CLint scaled [5]: 37.9 mL/min/kg
- Human CLhep [5]: 13.5 mL/min/kg
- fraction unbound [3]: 0.006
- Kp (Brain-plasma partition): 0.87
- unbound brain-to-plasma partition coefficient (Kp,uu) (Brain-plasma partition): 0.11
- IC50 (2C9): > 30 µM

Compound: c1cnc2c(Nc3ccc4c(OCC5CCCOC5)nccc4c3)n[nH]c2c1 (stereo not shown) [Compound 72]
- IC50 (1A2): 12.9 µM
- IC50 (2D6): 24.6 µM
- fraction unbound [1]: 0.009
- IC50 (3A4): 22.7 µM
- CLint scaled [4]: 273 mL/min/kg
- Rat CLhep [4]: 55.7 mL/min/kg
- fraction unbound [2]: 0.008
- CLint scaled [5]: 55.7 mL/min/kg
- Human CLhep [5]: 15.2 mL/min/kg
- fraction unbound [3]: 0.002
- Kp (Brain-plasma partition): 0.52
- unbound brain-to-plasma partition coefficient (Kp,uu) (Brain-plasma partition): 0.13
- IC50 (2C9): 3.15 µM

Compound: c1cnc2[nH]nc(Nc3ccc4c(OCC5CCOC5)nccc4c3)c2c1 (stereo not shown) [Compound 79]
- fraction unbound [1]: 0.018
- fraction unbound [2]: 0.019
- fraction unbound [3]: 0.002
- Kp (Brain-plasma partition): 1.5
- unbound brain-to-plasma partition coefficient (Kp,uu) (Brain-plasma partition): 0.16
- solubility kinetic (Kinetic solubility): < 0.4 µM

Compound: c1cnc2[nH]nc(Nc3ccc4c(OCCN5CCOCC5)nccc4c3)c2c1 [Compound 94]
- CLint scaled [4]: 923 mL/min/kg
- Rat CLhep [4]: 65.1 mL/min/kg
- CLint scaled [5]: 87.6 mL/min/kg
- Human CLhep [5]: 16.9 mL/min/kg
- solubility kinetic (Kinetic solubility): 15.2 ± 1.5 µM (≈ 5.93 µg/mL)

Compound: c1cnc2c(Nc3ccc4c(OCC5CCOC5)nccc4c3)n[nH]c2c1 (stereo not shown) [Compound 71]
- IC50 (1A2): 8.48 µM
- IC50 (2D6): 19.7 µM
- fraction unbound [1]: 0.015
- IC50 (3A4): 15.4 µM
- CLint scaled [4]: 151 mL/min/kg
- Rat CLhep [4]: 47.8 mL/min/kg
- fraction unbound [2]: 0.024
- CLint scaled [5]: 41.1 mL/min/kg
- Human CLhep [5]: 13.9 mL/min/kg
- fraction unbound [3]: 0.003
- Kp (Brain-plasma partition): 0.8
- unbound brain-to-plasma partition coefficient (Kp,uu) (Brain-plasma partition): 0.1
- IC50 (2C9): 4.59 µM

Compound: c1cc2cc(Nc3n[nH]c4nccnc34)ccc2c(OCC2CCOCC2)n1 [Compound 82]
- fraction unbound [1]: 0.02
- CLint scaled [4]: 154 mL/min/kg
- Rat CLhep [4]: 48.1 mL/min/kg
- fraction unbound [2]: 0.02
- CLint scaled [5]: 67.6 mL/min/kg
- Human CLhep [5]: 15.4 mL/min/kg
- fraction unbound [3]: 0.004
- Kp (Brain-plasma partition): 0.47
- unbound brain-to-plasma partition coefficient (Kp,uu) (Brain-plasma partition): 0.09
- solubility kinetic (Kinetic solubility): 0.5 ± 0.2 µM (≈ 0.188 µg/mL)

Compound: CO[C@H](C)COc1nccc2cc(Nc3n[nH]c4ncccc34)ccc12 [Compound 78]
- fraction unbound [1]: 0.023
- fraction unbound [2]: 0.042
- fraction unbound [3]: 0.004
- Kp (Brain-plasma partition): 0.99
- unbound brain-to-plasma partition coefficient (Kp,uu) (Brain-plasma partition): 0.09

Compound: Fc1cnc2c(Nc3ccc4c(OCC5COCCO5)nccc4c3)n[nH]c2c1 (stereo not shown) [Compound 100]
- CLint scaled [4]: 156 mL/min/kg
- Rat CLhep [4]: 48.3 mL/min/kg
- CLint scaled [5]: 46.1 mL/min/kg
- Human CLhep [5]: 14.4 mL/min/kg
- solubility kinetic (Kinetic solubility): 1.1 ± 0.6 µM (≈ 0.435 µg/mL)

Compound: C[C@@H]1C[C@H](Oc2nccc3cc(Nc4n[nH]c5cccnc45)ccc23)CO1 [Compound 89]
- CLint scaled [4]: 204 mL/min/kg
- Rat CLhep [4]: 52.1 mL/min/kg
- CLint scaled [5]: 37.8 mL/min/kg
- Human CLhep [5]: 13.5 mL/min/kg
- solubility kinetic (Kinetic solubility): 2.7 ± 0.4 µM (≈ 0.976 µg/mL)

Compound: c1cnc2c(Nc3ccc4c(OCC5CCOCC5)nccc4c3)n[nH]c2c1 [Compound 68]
- fraction unbound [1]: 0.008
- fraction unbound [2]: 0.009
- fraction unbound [3]: 0.001
- Kp (Brain-plasma partition): 1.06
- unbound brain-to-plasma partition coefficient (Kp,uu) (Brain-plasma partition): 0.12

Compound: CO[C@H](C)COc1nccc2cc(Nc3n[nH]c4nccnc34)ccc12 [Compound 84]
- fraction unbound [1]: 0.019
- CLint scaled [4]: 145 mL/min/kg
- Rat CLhep [4]: 47.2 mL/min/kg
- fraction unbound [2]: 0.027
- CLint scaled [5]: 75.3 mL/min/kg
- Human CLhep [5]: 16.4 mL/min/kg
- fraction unbound [3]: 0.008
- Kp (Brain-plasma partition): 1.11
- unbound brain-to-plasma partition coefficient (Kp,uu) (Brain-plasma partition): 0.33

Compound: c1cnc2[nH]nc(Nc3ccc4c(OCC5CCCCO5)nccc4c3)c2c1 (stereo not shown) [Compound 76]
- fraction unbound [1]: 0.008
- fraction unbound [2]: 0.01
- fraction unbound [3]: 0.001
- Kp (Brain-plasma partition): 1.27
- unbound brain-to-plasma partition coefficient (Kp,uu) (Brain-plasma partition): 0.13

Compound: Fc1cnc2[nH]nc(Nc3ccc4c(OC5CCOCC5)nccc4c3)c2c1 [Compound 99]
- CLint scaled [4]: 227 mL/min/kg
- Rat CLhep [4]: 53.5 mL/min/kg
- CLint scaled [5]: 36.8 mL/min/kg
- Human CLhep [5]: 13.4 mL/min/kg
- solubility kinetic (Kinetic solubility): 0.7 ± 0.2 µM (≈ 0.266 µg/mL)

Compound: COCCOc1nccc2cc(Nc3n[nH]c4ncc(F)cc34)ccc12 [Compound 96]
- CLint scaled [4]: 327 mL/min/kg
- Rat CLhep [4]: 57.7 mL/min/kg
- CLint scaled [5]: 37 mL/min/kg
- Human CLhep [5]: 13.4 mL/min/kg
- solubility kinetic (Kinetic solubility): 0.3 ± 0.2 µM (≈ 0.106 µg/mL)

Compound: COCCOc1nccc2cc(Nc3n[nH]c4ccccc34)ccc12 [Compound 98]
- CLint scaled [4]: 216 mL/min/kg
- Rat CLhep [4]: 52.9 mL/min/kg
- CLint scaled [5]: 30 mL/min/kg
- Human CLhep [5]: 12.4 mL/min/kg
- solubility kinetic (Kinetic solubility): 1.6 ± 0.2 µM (≈ 0.535 µg/mL)
